Source: paper PMC12104396, “Comparative in vitro assessment of CYP2C19 inhibition by ilaprazole and conventional proton pump inhibitors using a high throughput fluorometric assay” (Scientific Reports, 2025)
Values joined by “and” are separate entries in the source; they are usually repeats but may differ in a detail not shown here. Identical values can stand only once.

What was measured:
CYP2C19 = target: T1, CYP2C19 (Homo sapiens, UniProt P33261); assay: High-throughput fluorometric CYP2C19 inhibition assay (Vivid CYP2C19 Blue Screening Kit, EOMCC substrate, endpoint mode); assay type: biochemical; details: for Ki: approximated as IC50,u/2 (Cheng-Prusoff, S much lower than Km), read-out: Ki,u (unbound inhibition constant); for IC50: recombinant human CYP2C19 BACULOSOMES, eight concentrations, duplicate, nonlinear regression
T1 construct: purchased Thermo Scientific P2864
Experimental: Vivid™ CYP2C19 Blue Screening Kit (Thermo Scientific; Cat. No. P2864).
Vivid® CYP450 2X Reaction Buffer 100 Mm, CYP2C19 BACULOSOMES® Plus Reagent 0.5 nmol (Recombinant human cytochrome P450), 0.5 mL Vivid® Regeneration System (Glucose-6-phosphate and 30U/mL Glucose-6-phosphate dehydrogenase in 100 mM Potassium phosphate), 0.5 mL Vivid® NADP + , Vivid® EOMCC Substrate 0.1 mg, Vivid® Blue Fluorescent Standard 0.1 µmol.
Test compounds: Dissolved in DMSO; diluted to 2.5X in 1X buffer.
Positive control inhibitor (Ticlopidine): Stock in DMSO; 2.5X dilution in 1X buffer.
Master Pre-Mix: P450 BACULOSOMES® (50 µL) + Vivid® Regeneration System (100 µL) in 1X buffer.
Substrate/NADP + Mixture: Reconstituted substrate (0.1 mg in 205 µL acetonitrile); added 50 µL substrate + 30 µL NADP + (100X).
A high-throughput fluorometric assay was conducted using a black 96-well microplate. Fluorescence measurements were recorded on a BioTek Synergy H1 multimode microplate reader (Agilent, US) with the appropriate excitation/emission wavelength. The assay followed the protocol provided by Life Technologies, USA. Test compounds were evaluated based on their ability to inhibit fluorescent signal production in reactions involving recombinant CYP isozymes and specific substrates. For IC50 determination, two-fold serial dilutions of the test samples were prepared, and the plates were incubated at 37 °C for 20 min. The enzymatic reaction was initiated by adding a mixture of NADP + and the appropriate substrate, followed by a 10-min incubation at 37 °C. The reaction was then stopped by adding 0.5 M Tris buffer (end-point assay). Fluorescence data was collected at eight different concentrations for both inhibitors and test compounds, with all measurements performed in duplicate.
Fluorescence data were collected after the incubation period, to calculate the percentage inhibition using the following formula: [drawing 1]
X = Fluorescence intensity of test compound (PPIs), A = Fluorescence intensity of solvent control (Fluorescence standard), B = Fluorescence intensity of the positive inhibitor (Ticlopidine).
IC50 values for CYP2C19 (the concentration required to inhibit 50% of CYP2C19 activity) inhibition were calculated using nonlinear regression analysis in GraphPad Prism 9 software.
IC₅₀,u (unbound IC₅₀) was calculated using the formula: [drawing 2] fu, inc = Fraction unbound in the incubation system (0.02, as per regulatory assumptions for highly protein-bound drugs).
The unbound inhibition constant (Ki,u) was determined using the Cheng-Prusoff equation: [drawing 3]
S = Substrate concentration used in the assay, IC₅₀,u = unbound half-maximal inhibitory concentration, Km = Michaelis constant for the substrate.
Fluorometric assay is the most commonly used method to identify the CYP inhibition of compounds in early drug discovery due to its sensitivity, speed, low cost, and ease of use. This method helps to ensure the drug interaction potential of the test compound on the important CYP isoforms such as CYP2C19. Inhibitor potency was quantified by determining IC50 values, which in turn was carried out using fixed substrate and inhibitor concentrations. Ilaprazole, Conventional PPIs, and Positive Control (Ticlopidine) were assayed between concentrations ranging from 0.8 to 6.4 μg/mL (Eight Different Concentration). All samples were assayed in duplicate as per the experimental condition (Table 1), the endpoint mode was selected to analyze the percentage inhibition, and IC50 values were calculated.

[1] = Unbound peak plasma concentration (Cmax,u) from literature Cmax; assay type: in vivo; details: unbound peak plasma concentration = literature Cmax x fu 0.01; highest recommended doses
Source text: The Cmax values for Pantoprazole, Rabeprazole, Lansoprazole, and Omeprazole were obtained from reliable sources, primarily the highest recommended doses listed in the FDA drug labels[15]–[19]. However, for Ilaprazole, as no literature data was available, its Cmax was obtained from available pharmacokinetic studies [drawing 4]
Cmax,u = unbound peak plasma concentration, Cmax = Maximum plasma concentration (from literature), fu = fraction unbound in plasma (0.01 as per the guidance for high protein-bound drugs).

T1 sequence (P33261 whole entry): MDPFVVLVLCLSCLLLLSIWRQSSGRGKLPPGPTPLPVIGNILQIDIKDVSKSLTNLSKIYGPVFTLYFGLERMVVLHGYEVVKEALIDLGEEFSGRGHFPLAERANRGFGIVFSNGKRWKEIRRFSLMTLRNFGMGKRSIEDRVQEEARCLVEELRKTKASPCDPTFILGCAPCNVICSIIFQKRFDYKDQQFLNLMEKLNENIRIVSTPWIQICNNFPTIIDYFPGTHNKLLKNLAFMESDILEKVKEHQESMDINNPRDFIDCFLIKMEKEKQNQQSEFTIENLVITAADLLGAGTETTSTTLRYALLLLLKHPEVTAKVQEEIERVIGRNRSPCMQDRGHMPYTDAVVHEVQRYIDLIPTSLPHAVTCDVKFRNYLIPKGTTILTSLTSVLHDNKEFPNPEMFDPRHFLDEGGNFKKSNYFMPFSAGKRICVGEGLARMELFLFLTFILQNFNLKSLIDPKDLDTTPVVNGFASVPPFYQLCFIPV

Cc1c(OCC(F)(F)F)ccnc1C[S+]([O-])c1nc2ccccc2[nH]1 (stereo not drawn) [Lansoprazole]
Ki (CYP2C19): 41.3 µM
IC50 (CYP2C19): 1.65 ± 1.37 µM
Cmax,u [1]: 0.0115 µg/mL and 0.0311 µM

COc1ccnc(C[S+]([O-])c2nc3cc(-n4cccc4)ccc3[nH]2)c1C (stereo not drawn) [Ilaprazole]
Ki (CYP2C19): 166 µM
IC50 (CYP2C19): 6.62 ± 1.34 µM
Cmax,u [1]: 0.0045 µg/mL and 0.0123 µM

COc1ccnc(C[S+]([O-])c2nc3ccc(OC(F)F)cc3[nH]2)c1OC (stereo not drawn) [Pantoprazole]
Ki (CYP2C19): 88 µM
IC50 (CYP2C19): 3.52 ± 1.47 µM
Cmax,u [1]: 0.025 µg/mL and 0.0652 µM

COc1ccc2[nH]c([S+]([O-])Cc3ncc(C)c(OC)c3C)nc2c1 (stereo not drawn) [Omeprazole]
Ki (CYP2C19): 35.2 µM
IC50 (CYP2C19): 1.41 ± 0.96 µM
Cmax,u [1]: 0.0112 µg/mL and 0.0324 µM

COCCCOc1ccnc(C[S+]([O-])c2nc3ccccc3[nH]2)c1C (stereo not drawn) [Rabeprazole]
Ki (CYP2C19): 161 µM
IC50 (CYP2C19): 6.43 ± 1.09 µM
Cmax,u [1]: 0.0062 µg/mL and 0.0173 µM
